Measurements as given in patent US20140335038A1, “METHOD OF STRENGTHENING HAIR FIBRES” (priority 2011, published 2014).

Test: DSC denaturation peak temperature of treated dark brown hair
Parameters: species or system Human
Conditions: Example 4, 5 treatments, pH 5, 32° C.
Protocol: DSC measures the denaturation temperature of the α-helical proteins in the microfibrils of the hair fibre. This temperature is influenced by the cross-link density of the surrounding matrix proteins (Wortmann et al., J. Cosmet. Sci., 53, 219-228 (2002)). A higher denaturation peak temperature indicates greater integrity of the fibre. Damage repair was assessed using DSC. A Mettler Toledo DSC1 analyser was used. The hair was shaved, using clippers, into 1-2 mm lengths. Approximately 5 mg of sample was weighed into a pressure resistant (20 bar), stainless steel, large volume pan (120 μL capacity). 50 μL of water was added and the pan was sealed. The samples were then mixed using a rotary mixer and left overnight to allow the water to equilibrate throughout the sample. […] The helix transition temperature was measured. Each sample was measured three times. Selected 2'' hair switches were bleached once using […] […] 4200 μL Britton-Robinson buffer (62.5 mM pH 5; final concentration 50 mM) 600 μl hydrogen peroxide 3% (SBP- or HRP-treated sample and (+)-catechin/H2O2 treated sample) or 600 μL milliQ water (laccase-treated sample and (+)-catechin treated sample) 600 μL (+)-catechin, 100 mg/mL stock in DMSO The reagents listed above were combined in 15 mL Falcon centrifuge tubes. […] Samples were measured three times.

Oc1cc(O)c2c(c1)O[C@H](c1ccc(O)c(O)c1)[C@@H](O)C2 [(+)-Catechin, (+)-catechin]
Denaturation peak temperature (dark brown hair bleached x1): 153.38 +/− 0.43 °C
Denaturation peak temperature (unbleached dark brown hair): 151.16 +/− 0.49 °C
